Laboratory results reported in the NIST ThermoML archive (doi:10.1021/acs.jced.7b00002).

Tests used:
[1] = xn = mol fraction of the nth substance listed; details: 97.6 kPa, Liquid, x2 = 0; for viscosity: Capillary tube (Ostwald / Ubbelohde) method; for mass density: Vibrating tube method
[2] = 97.6 kPa, Liquid; for viscosity: Capillary tube (Ostwald / Ubbelohde) method; for mass density: Vibrating tube method

C[S+](C)[O-] [dimethyl sulfoxide] + CCCCCCCC[n+]1ccn(C)c1.[Cl-]
[1]
Details	mass density [kg/m3]	viscosity [mPa·s]
303.15 K	1090.29	1.8
308.15 K	1085.28	1.66
313.15 K	1080.3	1.53
318.15 K	1075.31	1.41
323.15 K	1070.32	1.3
328.15 K	1065.33	1.21
333.15 K	1060.34	1.13
338.15 K	1055.34	1.06
343.15 K	1050.35	0.99
348.15 K	1045.34	0.93
353.15 K	1040.33	0.88

CC(=O)N(C)C [N,N-dimethylethanamide]
[2]
Details	mass density [kg/m3]	viscosity [mPa·s]
303.15 K	931.85	0.89
308.15 K	927.26	0.83
313.15 K	922.66	0.78
318.15 K	918.06	0.74
323.15 K	913.44	0.7
328.15 K	908.81	0.66
333.15 K	904.16	0.63
338.15 K	899.53	0.6
343.15 K	894.87	0.57
348.15 K	890.19	0.54
353.15 K	885.51	0.52

CN(C)C=O [dimethylformamide]
[2]
Details	mass density [kg/m3]	viscosity [mPa·s]
303.15 K	939.18	0.77
308.15 K	934.41	0.72
313.15 K	929.64	0.68
318.15 K	924.86	0.65
323.15 K	920.07	0.62
328.15 K	915.26	0.59
333.15 K	910.44	0.56
338.15 K	905.6	0.54
343.15 K	900.74	0.51
348.15 K	895.87	0.49
353.15 K	890.98	0.47

c1ccncc1 [pyridine] + CCCCCCCC[n+]1ccn(C)c1.[Cl-]
[1]
Details	mass density [kg/m3]	viscosity [mPa·s]
303.15 K	973.09	0.84
308.15 K	968.06	0.79
313.15 K	963.02	0.74
318.15 K	957.97	0.7
323.15 K	952.9	0.66
328.15 K	947.82	0.62
333.15 K	942.72	0.59
338.15 K	937.6	0.56
343.15 K	932.46	0.53
348.15 K	927.3	0.51
353.15 K	922.12	0.48

CCCCCCCC[n+]1ccn(C)c1.[Cl-] [1-methyl-3-octylimidazolium chloride]
[2]
Details	mass density [kg/m3]	viscosity [mPa·s]
303.15 K	1006.2	7339.7
308.15 K	1003.33	4272.9
313.15 K	1000.48	2766.9
318.15 K	997.64	1788.6
323.15 K	994.82	1198.7
328.15 K	992	828.3
333.15 K	989.17	588.69
338.15 K	986.38	426.28
343.15 K	983.63	316.66
348.15 K	980.88	237.14
353.15 K	978.13	181.41

C[S+](C)[O-] [dimethyl sulfoxide]
[2]
Details	mass density [kg/m3]	viscosity [mPa·s]
303.15 K	1090.29	1.8
308.15 K	1085.28	1.66
313.15 K	1080.3	1.53
318.15 K	1075.31	1.41
323.15 K	1070.32	1.3
328.15 K	1065.33	1.21
333.15 K	1060.34	1.13
338.15 K	1055.34	1.06
343.15 K	1050.35	0.99
348.15 K	1045.34	0.93
353.15 K	1040.33	0.88

c1ccncc1 [pyridine]
[2]
Details	mass density [kg/m3]	viscosity [mPa·s]
303.15 K	973.09	0.84
308.15 K	968.06	0.79
313.15 K	963.02	0.74
318.15 K	957.97	0.7
323.15 K	952.9	0.66
328.15 K	947.82	0.62
333.15 K	942.72	0.59
338.15 K	937.6	0.56
343.15 K	932.46	0.53
348.15 K	927.3	0.51
353.15 K	922.12	0.48

CC(=O)N(C)C [N,N-dimethylethanamide] + CCCCCCCC[n+]1ccn(C)c1.[Cl-]
[1]
Details	mass density [kg/m3]	viscosity [mPa·s]
303.15 K	931.85	0.89
308.15 K	927.26	0.83
313.15 K	922.66	0.78
318.15 K	918.06	0.74
323.15 K	913.44	0.7
328.15 K	908.81	0.66
333.15 K	904.16	0.63
338.15 K	899.53	0.6
343.15 K	894.87	0.57
348.15 K	890.19	0.54
353.15 K	885.51	0.52

CN(C)C=O [dimethylformamide] + CCCCCCCC[n+]1ccn(C)c1.[Cl-]
[1]
Details	mass density [kg/m3]	viscosity [mPa·s]
303.15 K	939.18	0.77
308.15 K	934.41	0.72
313.15 K	929.64	0.68
318.15 K	924.86	0.65
323.15 K	920.07	0.62
328.15 K	915.26	0.59
333.15 K	910.44	0.56
338.15 K	905.6	0.54
343.15 K	900.74	0.51
348.15 K	895.87	0.49
353.15 K	890.98	0.47
